This is an account of results in US10343992B2, “1-cyano-pyrrolidine compounds as USP30 inhibitors” (MISSION THERAPEUTICS LIMITED, priority 2015, dated 2019).

SMILES strings stand for the structures. pIC50: −log10 of the molar value. Some results are limits rather than exact numbers.

Sequence of USP30 (Q70CQ3 57-517): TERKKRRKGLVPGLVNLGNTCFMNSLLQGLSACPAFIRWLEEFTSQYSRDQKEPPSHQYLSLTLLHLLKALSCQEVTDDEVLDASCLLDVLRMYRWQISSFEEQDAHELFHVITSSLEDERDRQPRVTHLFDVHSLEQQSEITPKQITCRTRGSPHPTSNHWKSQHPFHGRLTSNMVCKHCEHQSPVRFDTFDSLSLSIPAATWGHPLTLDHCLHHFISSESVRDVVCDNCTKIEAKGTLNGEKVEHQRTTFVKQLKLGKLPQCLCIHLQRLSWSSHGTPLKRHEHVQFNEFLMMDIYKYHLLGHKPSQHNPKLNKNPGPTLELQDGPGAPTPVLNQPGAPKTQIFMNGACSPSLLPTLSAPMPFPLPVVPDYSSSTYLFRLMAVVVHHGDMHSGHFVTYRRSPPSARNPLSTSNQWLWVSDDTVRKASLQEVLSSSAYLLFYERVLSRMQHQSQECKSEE

The assay concerns the target USP30 (Homo sapiens (Human), UniProt Q70CQ3). Nature of the assay: USP30 biochemical FP or FI IC50 assay. Conditions: read-out: IC50 range. A digest of the protocol: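 Human USP30 preincubated 30 min at room temperature with compound (8-point series, 100 µM top final) in Tris pH 7.5, Tween 20, BSA, 5 mM β-mercaptoethanol, in duplicate. FP format: 50 nM TAMRA-peptide–isopeptide-ubiquitin substrate, ex 540/em 590. FI format: 100 nM ubiquitin-rhodamine 110, ex 487/em 535. Both read at 0 and after 2 h at room temperature.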
A word on the pIC50: it is the negative decadic logarithm of the IC50, by convention in mol/L. Take `N#CN1CC[C@@H](NC(=O)c2cc(-c3cccnc3)[nH]n2)C1` [Example 103, (R)-N-(1-cyanopyrrolidin-3-yl)-5-(pyridin-3-yl)-1H-pyrazole-3-carboxamide]: the negative logarithm of the IC50 (pIC50) is 6.00 to 7.00.

`Cn1cc(-c2cccc(C(=O)N[C@@H]3CCN(C#N)C3)c2F)cn1` [Example 104, (R)-N-(1-cyanopyrrolidin-3-yl)-2-fluoro-3-(1-methyl-1H-pyrazol-4-yl)benzamide]: the pIC50 is 6.00 to 7.00.

Regarding `Cc1nccc(-c2ccc(C(=O)N[C@@H]3CCN(C#N)C3)c(F)c2)n1` [Example 105, (R)-N-(1-cyanopyrrolidin-3-yl)-2-fluoro-4-(2-methylpyrimidin-4-yl)benzamide], the pIC50 is above 7.00.

For `Cn1cc(-c2ccc(C(=O)N[C@@H]3CCN(C#N)C3)nc2)cn1` [Example 106, (R)-N-(1-cyanopyrrolidin-3-yl)-5-(1-methyl-1H-pyrazol-4-yl)picolinamide], the pIC50 was 6.00 to 7.00.

Turning to `Cn1cc(-c2ccc(F)c(C(=O)N[C@@H]3CCN(C#N)C3)c2)cn1` [Example 107, (R)-N-(1-cyanopyrrolidin-3-yl)-2-fluoro-5-(1-methyl-1H-pyrazol-4-yl)benzamide], the negative logarithm of the IC50 (pIC50) was 6.00 to 7.00.

Turning to `N#CN1CC[C@@H](NC(=O)c2ccc(-c3ccncn3)cc2F)C1` [Example 108, (R)-N-(1-cyanopyrrolidin-3-yl)-2-fluoro-4-(pyrimidin-4-yl)benzamide], the pIC50 is 6.00 to 7.00.

As for `N#CN1CC[C@@H](NC(=O)c2ccc(-c3cnc4nccn4c3)cc2F)C1` [Example 109, (R)-N-(1-cyanopyrrolidin-3-yl)-2-fluoro-4-(imidazo[1,2-a]pyrimidin-6-yl)benzamide], the pIC50 is 6.00 to 7.00.

For the molecule `COc1cc(-c2cnn(C)c2)ccc1C(=O)N[C@@H]1CCN(C#N)C1` [Example 110, (R)-N-(1-cyanopyrrolidin-3-yl)-2-methoxy-4-(1-methyl-1H-pyrazol-4-yl)benzamide], the pIC50 is 6.00 to 7.00.

In the case of `Cn1cc(-c2ccc(C(=O)N[C@@H]3CCN(C#N)C3)cn2)cn1` [Example 111, (R)-N-(1-cyanopyrrolidin-3-yl)-6-(1-methyl-1H-pyrazol-4-yl)nicotinamide], the pIC50 was 6.00 to 7.00.

In the case of `Cn1cc(-c2cc(F)c(C(=O)N[C@@H]3CCN(C#N)C3)c(F)c2)cn1` [Example 113, (R)-N-(1-cyanopyrrolidin-3-yl)-2,6-difluoro-4-(1-methyl-1H-pyrazol-4-yl)benzamide], the pIC50 was 6.00 to 7.00.

Regarding `Cn1cc(-c2ccc3c(C(=O)N[C@@H]4CCN(C#N)C4)cnn3c2)cn1` [Example 114, (R)-N-(1-cyanopyrrolidin-3-yl)-6-(1-methyl-1H-pyrazol-4-yl)pyrazolo[1,5-a]pyridine-3-carboxamide], the pIC50 is 6.00 to 7.00.

Consider `COc1c(-c2cnn(C)c2)ccc(C(=O)N[C@@H]2CCN(C#N)C2)c1F` [Example 115, (R)-N-(1-cyanopyrrolidin-3-yl)-2-fluoro-3-methoxy-4-(1-methyl-1H-pyrazol-4-yl)benzamide], for which the pIC50 is 6.00 to 7.00.

In the case of `N#Cc1cccc(-c2ccc3nc(C(=O)N[C@@H]4CCN(C#N)C4)cn3c2)c1` [Example 116, (R)-6-(3-cyanophenyl)-N-(1-cyanopyrrolidin-3-yl)imidazo[1,2-a]pyridine-2-carboxamide], the pIC50 is above 7.00.

Take `N#Cc1ccc(-c2ccc3nc(C(=O)N[C@@H]4CCN(C#N)C4)cn3c2)cc1` [Example 117, (R)-6-(4-cyanophenyl)-N-(1-cyanopyrrolidin-3-yl)imidazo[1,2-a]pyridine-2-carboxamide]: the pIC50 is 6.00 to 7.00.

For the molecule `N#CN1CC[C@@H](NC(=O)c2ccc(-c3ccc4nccn4c3)cc2F)C1` [Example 118, (R)-N-(1-cyanopyrrolidin-3-yl)-2-fluoro-4-(imidazo[1,2-a]pyridin-6-yl)benzamide], the pIC50 is above 7.00.

In the case of `N#CN1CC[C@@H](NC(=O)c2ccc(-c3ccnc(N4CCOCC4)c3)cc2F)C1` [Example 119, (R)-N-(1-cyanopyrrolidin-3-yl)-2-fluoro-4-(2-morpholinopyridin-4-yl)benzamide], the pIC50 was above 7.00.

As for `Cn1ncc2cc(-c3cnc(C(=O)N[C@@H]4CCN(C#N)C4)c(F)c3)ccc21` [Example 120, (R)-N-(1-cyanopyrrolidin-3-yl)-3-fluoro-5-(1-methyl-1H-indazol-5-yl)picolinamide], the pIC50 is above 7.00.

For `Cn1ccc2cc(-c3cnc(C(=O)N[C@@H]4CCN(C#N)C4)c(F)c3)cnc21` [Example 121, (R)-N-(1-cyanopyrrolidin-3-yl)-3-fluoro-5-(1-methyl-1H-pyrrolo[2,3-b]pyridin-5-yl)picolinamide], the pIC50 is above 7.00.

Regarding `Cc1nn(C)cc1-c1cnc(C(=O)N[C@@H]2CCN(C#N)C2)c(F)c1` [Example 122, (R)-N-(1-cyanopyrrolidin-3-yl)-5-(1,3-dimethyl-1H-pyrazol-4-yl)-3-fluoropicolinamide], the pIC50 was 6.00 to 7.00.

For `N#CN1CC[C@@H](NC(=O)c2ncc(-c3ccc(F)cc3)cc2Cl)C1` [Example 123, (R)-3-chloro-N-(1-cyanopyrrolidin-3-yl)-5-(4-fluorophenyl)picolinamide], the pIC50 was above 7.00.

On to `Cn1cc(-c2ccc3nc(C(=O)N[C@@H]4CCN(C#N)C4)cn3c2)cn1` [Example 124, (R)-N-(1-cyanopyrrolidin-3-yl)-6-(1-methyl-1H-pyrazol-4-yl)imidazo[1,2-a]pyridine-2-carboxamide], for which the pIC50 is 6.00 to 7.00.

Take `Cc1nn(C)cc1-c1ccc2nc(C(=O)N[C@@H]3CCN(C#N)C3)cn2c1` [Example 125, (R)-N-(1-cyanopyrrolidin-3-yl)-6-(1,3-dimethyl-1H-pyrazol-4-yl)imidazo[1,2-a]pyridine-2-carboxamide]: the pIC50 was 6.00 to 7.00.

For the molecule `Cn1cc(-c2ccc3[nH]nc(C(=O)N[C@@H]4CCN(C#N)C4)c3c2)cn1` [Example 126, (R)-N-(1-cyanopyrrolidin-3-yl)-5-(1-methyl-1H-pyrazol-4-yl)-1H-indazole-3-carboxamide], the pIC50 was above 7.00.

In the case of `Cn1cc(-c2ccc3c(C(=O)N[C@@H]4CCN(C#N)C4)n[nH]c3c2)cn1` [Example 127, (R)-N-(1-cyanopyrrolidin-3-yl)-6-(1-methyl-1H-pyrazol-4-yl)-1H-indazole-3-carboxamide], the pIC50 was 6.00 to 7.00.

On to `Cc1noc(C)c1-c1ccc2cc(C(=O)N[C@@H]3CCN(C#N)C3)[nH]c2c1` [Example 128, (R)-N-(1-cyanopyrrolidin-3-yl)-6-(3,5-dimethylisoxazol-4-yl)-1H-indole-2-carboxamide], for which the pIC50 is above 7.00.

Consider `Cc1nn(C)cc1-c1ccc2cc(C(=O)N[C@@H]3CCN(C#N)C3)[nH]c2c1` [Example 129, (R)-N-(1-cyanopyrrolidin-3-yl)-6-(1,3-dimethyl-1H-pyrazol-4-yl)-1H-indole-2-carboxamide], for which the pIC50 was above 7.00.

`Cn1cc(-c2ccc3[nH]c(C(=O)N[C@@H]4CCN(C#N)C4)cc3c2)cn1` [Example 130, (R)-N-(1-cyanopyrrolidin-3-yl)-5-(1-methyl-1H-pyrazol-4-yl)-1H-indole-2-carboxamide]: the pIC50 was above 7.00.

Take `CCn1cc(-c2cnc(C(=O)N[C@@H]3CCN(C#N)C3)cc2C)cn1` [Example 132, (R)-N-(1-cyanopyrrolidin-3-yl)-5-(1-ethyl-1H-pyrazol-4-yl)-4-methylpicolinamide]: the pIC50 is 6.00 to 7.00.
